Results taken from US9586958B2, “Prodrug derivatives of substituted triazolopyridines” (BAYER PHARMA AKTIENGESELLSCHAFT, priority 2013, dated 2017).
Where two headings read alike, the source gives them in different places.

How the values were obtained:
[1] = system: HeLa human cervical tumor cells; assay: Proliferation assay, HeLa cells (crystal violet); assay type: cell-based
Method: (§1) Cultivated tumor cells (MCF7, hormone dependent human mammary carcinoma cells, ATCC HTB22; NCI-H460, human non-small cell lung carcinoma cells, ATCC HTB-177; DU 145, hormone-independent human prostate carcinoma cells, ATCC HTB-81; HeLa-MaTu, human cervical carcinoma cells, EPO-GmbH, Berlin; HeLa-MaTu-ADR, multidrug-resistant human cervical carcinoma cells, EPO-GmbH, Berlin; HeLa human cervical tumor cells, ATCC CCL-2; B16F10 mouse melanoma cells, ATCC CRL-6475) were plated at a density of 5000 cells/well (MCF7, DU145, HeLa-MaTu-ADR), 3000 cells/well (NCI-H460, HeLa-MaTu, HeLa), or 1000 cells/well (B16F10) in a 96-well multititer plate in 200 μl of their respective growth medium supplemented 10% fetal calf serum. After 24 hours, the cells of one plate (zero-point plate) were stained with crystal violet (see below), while the medium of the other plates was replaced by fresh culture medium (200 μl), to which the test substances were added in various concentrations (0 μM, as well as in the range of 0.01-30 μM; the final concentration of the solvent dimethyl sulfoxide was 0.5%). The cells were incubated for 4 days in the presence of test substances. Cell proliferation was determined by staining the cells with crystal violet: the cells were fixed by adding 20 μl/measuring point of an 11% glutaric aldehyde solution for 15 minutes at room temperature. After three washing cycles of the fixed cells with water, the plates were dried at room temperature. The cells were stained by adding 100 μl/measuring point of a 0.1% crystal violet solution (pH 3.0). After three washing cycles of the stained cells with water, the plates were dried at room temperature. The dye was dissolved by adding 100 μl/measuring point of a 10% acetic acid solution. The extinction was determined by photometry at a wavelength of 595 nm. The change of cell number, in percent, was calculated by normalization of the measured values to the extinction values of the zero-point plate (=0%) and the extinction of the untreated (0 μm) cells (=100%). The IC50 values were determined by means of a 4 parameter fit.

[2] = system: HeLa-MaTu-ADR, multidrug-resistant human cervical carcinoma cells; assay: Proliferation assay, HeLa-MaTu-ADR cells (crystal violet); assay type: cell-based; settings: read-out: IC50 determined in a HeLa-MaTu-ADR cell proliferation assay
Method: as §1

human kinase Mps-1 [3] = target: T1, human kinase Mps-1 (Homo sapiens, UniProt P33981); assay: Mps-1 kinase assay (TR-FRET) with 10 μM ATP; assay type: biochemical
T1 construct: N-terminally GST-tagged human full length recombinant Mps-1 kinase; GST (N); purchased Invitrogen, Karslruhe, Germany PV4071
T1 sequence (P33981 1-857): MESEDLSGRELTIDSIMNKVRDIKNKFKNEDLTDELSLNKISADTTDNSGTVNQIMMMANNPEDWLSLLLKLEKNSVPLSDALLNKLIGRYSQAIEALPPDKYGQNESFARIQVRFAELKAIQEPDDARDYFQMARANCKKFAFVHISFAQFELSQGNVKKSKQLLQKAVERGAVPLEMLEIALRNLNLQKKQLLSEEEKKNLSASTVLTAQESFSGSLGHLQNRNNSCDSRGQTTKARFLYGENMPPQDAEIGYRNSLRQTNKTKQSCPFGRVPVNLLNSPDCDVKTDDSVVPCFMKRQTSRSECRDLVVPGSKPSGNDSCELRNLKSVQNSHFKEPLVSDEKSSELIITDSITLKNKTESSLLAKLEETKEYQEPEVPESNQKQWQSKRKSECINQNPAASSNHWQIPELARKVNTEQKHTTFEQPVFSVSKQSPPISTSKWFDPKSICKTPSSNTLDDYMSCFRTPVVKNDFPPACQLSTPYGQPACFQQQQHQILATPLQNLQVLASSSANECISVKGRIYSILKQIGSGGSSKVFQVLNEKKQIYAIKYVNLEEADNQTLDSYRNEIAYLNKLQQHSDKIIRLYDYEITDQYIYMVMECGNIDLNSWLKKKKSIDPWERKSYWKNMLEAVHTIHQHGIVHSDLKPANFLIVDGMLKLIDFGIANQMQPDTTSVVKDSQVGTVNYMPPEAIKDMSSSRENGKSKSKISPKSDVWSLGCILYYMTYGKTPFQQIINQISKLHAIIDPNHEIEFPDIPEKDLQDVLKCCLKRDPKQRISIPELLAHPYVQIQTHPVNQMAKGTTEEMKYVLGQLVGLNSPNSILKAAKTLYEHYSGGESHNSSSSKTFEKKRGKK

human kinase Mps-1 [4] = target: T1, human kinase Mps-1; assay: Mps-1 kinase assay (TR-FRET) with 2 mM ATP; assay type: biochemical
[5] = Metabolic stability in vitro, rat liver microsomes (calculation of Fmax); assay type: in vitro ADME
Method: (§2) The metabolic stability of test compounds in vitro was determined by incubating them at 1 μM with a suspension liver microsomes in 100 mM phosphate buffer, pH7.4 (NaH2PO4×H2O+Na2HPO4×2H2O) at a protein concentration of 0.5 mg/mL and at 37° C. The reaction was activated by adding a co-factor mix containing 1.2 mg NADP, 3 IU glucose-6-phosphate dehydrogenase, 14.6 mg glucose-6-phosphate and 4.9 mg MgCl2 in phosphate buffer, pH 7.4. Organic solvent in the incubations was limited to <0.2% dimethylsulfoxide (DMSO) and <1% methanol. During incubation, the microsomal suspensions were continuously shaken and aliquots were taken at 2, 8, 16, 30, 45 and 60 min, to which equal volumes of cold methanol were immediately added. Samples were frozen at −20° C. over night, subsequently centrifuged for 15 minutes at 3000 rpm and the supernatant was analyzed with an Agilent 1200 HPLC-system with LCMS/MS detection.
(§3) The half-life of a test compound was determined from the concentration-time plot. From the half-life the intrinsic clearances were calculated. Together with the additional parameters liver blood flow, specific liver weight and microsomal protein content the hepatic in vivo blood clearance (CL) and the maximal oral bioavailability (Fmax) were calculated for the different species. The following parameter values were used: Liver blood flow—1.3 L/h/kg (human), 2.1 L/h/kg (dog), 4.2 L/h/kg (rat); specific liver weight—21 g/kg (human), 39 g/kg (dog), 32 g/kg (rat); microsomal protein content—40 mg/g.
(§4) With the described assay only phase-I metabolism of microsomes is reflected, e.g. typically oxidoreductive reactions by cytochrome P450 enzymes and flavin mono-oxygenases (FMO) and hydrolytic reactions by esterases (esters and amides).

[6] = Metabolic stability in vitro, human liver microsomes (calculation of Fmax); assay type: in vitro ADME; settings: for Human liver microsomes; Fmax [%]: 1 μM; for calculated maximal oral bioavailability (Fmax) at 1 μM: pH 7.4, determined by means of human liver microsomes, read-out: maximum oral bioavailability (Fmax) in human
Method: as §2, §3, §4

[7] = Metabolic stability in vitro, dog liver microsomes (calculation of Fmax); assay type: in vitro ADME
Method: as §2, §3, §4

[8] = 96 h, HeLa cells, 4 days, read-out: Inhibition of cell proliferation, cell Line: HeLa IC50
[9] = HeLa, comparison table with comparative examples, read-out: Inhibition of cell proli-feration, cell line: HeLa, IC50
[10] = HeLa, read-out: IC50 in a HeLa cell proliferation assay
[11] = IC50 in an Mps-1 kinase assay with a concentration of 10 μM ATP
[12] = Mps-1 Inhibition, IC50 (Assay with 10 μM ATP), comparison table with comparative examples
[13] = Mps-1 Inhibition, IC50 in M (Assay with 10 μM ATP)
[14] = IC50 in an Mps-1 kinase assay with a concentration of 2 mM ATP
[15] = Mps-1 Inhibition, IC50 in M (Assay with 2 mM ATP)
[16] = comparison table with comparative examples

| IC50 [1, 8] [nM] | IC50 [1, 9] [nM] | IC50 [1, 10] [nM] | IC50 [2] [nM] | IC50 (human kinase Mps-1 [3]; [11]) [nM] | IC50 (human kinase Mps-1 [3]; [12]) [nM] | IC50 (human kinase Mps-1 [3]; [13]) [nM] | IC50 (human kinase Mps-1 [4]; [14]) [nM] | IC50 (human kinase Mps-1 [4]; [15]) [nM] | Rat liver microsomes; Fmax [%] [5, 16] [%] | Rat liver microsomes; Fmax [%] ([5]; rat liver microsomes, 1 μM) | Human liver microsomes; Fmax [%] [6] [%] | calculated maximal oral bioavailability (Fmax) at 1 μM [6] [%] | Dog liver microsomes; Fmax [%] [7, 16] [%] | Dog liver microsomes; Fmax [%] ([7]; dog liver microsomes, 1 μM) | Structure (SMILES) |
| --- | --- | --- | --- | --- | --- | --- | --- | --- | --- | --- | --- | --- | --- | --- | --- |
| < 100 | < 100 | < 400 | < 10000 | ≤ 1 | < 1 | < 1 | < 2 | < 1 | 74 | 74 | 62 | > 60 | 75 | 75 | COc1cc(C(=O)N2CCC2)ccc1Nc1nc2ccc(-c3ccc(NC(=O)[C@H](C)c4ccc(F)cc4)cc3)cn2n1 [Compound A4, (2R)-N-[4-(2-{[4-(azetidin-1-ylcarbonyl)-2-methoxyphenyl]amino}[1,2,4]-triazolo[1,5-α]pyridin-6-yl)phenyl]-2-(4-fluorophenyl)propanamide] |
| < 100 | < 100 | < 400 | < 10000 | ≤ 1 | < 1 | < 1 | < 2 | < 1 | 89 | 89 | 69 | > 60 | 57 | 57 | C[C@@H](C(=O)Nc1ccc(-c2ccc3nc(Nc4ccc(C(=O)N5CC(F)C5)cc4OCC(F)(F)F)nn3c2)cc1)c1ccc(F)cc1 [Compound A5, (2R)-N-{4-[2-({4-[(3-fluoroazetidin-1-yl)carbonyl]-2-(2,2,2-trifluoroethoxy)phenyl}amino)[1,2,4]triazolo[1,5-α]pyridin-6-yl]phenyl}-2-(4-fluorophenyl)propanamide] |
